Source: US7259236B2, “RBP1L1, a novel retinoblastoma binding protein-related gene encoding an antigenic epitope and methods of using thereof” (Regents of the University of California, priority 2001, dated 2007)

Experiments:
[1] = test system: purified specific IgG binding to GST-RBP1L1 fusion protein; assay: Inhibition by synthetic peptides of purified specific IgG binding to GST-RBP1L1 fusion protein (Western blot); parameters: species or system human; settings: peptide 5 μg/ml, purified specific IgG 0.5 μg/ml, fusion protein from clone 151
Experimental: To determine the minimal number of amino acids necessary for antibody binding, synthetic peptides of various lengths were tested for their ability to inhibit the binding of purified specific IgG to GST-RBP1L1 fusion protein by Western blot analysis. The synthetic peptides tested were:
[…] The antigen and purified IgG mixture was agitated at 4° C. overnight, and the inhibition of antibody binding was assessed by Western blotting using GST-RBP1L1 fusion protein as the target antigen.
The minimum number of amino acids required for the antibody binding was determined by testing various truncated synthetic peptides in ELISAs and on Western blots. The following set of peptides was generated by sequentially reducing the 10-amino acid peptide by one amino acid from either the amino terminus or the carboxyl terminus:
(§1) The wells of a 96-well ELISA plate were coated with 100 μl of a peptide (5 μg/ml). The specific human IgG (200 μg/ml) was serially diluted from 1:250 to 1:4,000.

purified specific IgG = assay: ELISA with synthetic peptide antigens; type: binding, human; settings: ELISA and Western blot, truncated synthetic peptides; plate coated with 5 μg/ml peptide, IgG 200 μg/ml diluted 1:250 to 1:4,000
Experimental: The binding of purified specific IgG to synthetic peptides was assessed by ELISA. 96-well polystyrene plates (Reacti-Bind maleic anhydride-activated plates, Pierce) coated with each of the peptides (100 μl of 5 μg/ml) in PBS, incubated overnight at 4° C., and then blocked with 1% bovine serum albumin. Purified specific IgG (200 μg/ml) was serially diluted 1:250, 1:500, 1:1000, 1:2000, and 1:4000, then added in triplicate to peptide-coated wells (500 ng per well), and incubated for 3 hours at room temperature. Peroxidase-conjugated goat anti-human IgG (Pierce) was added at room temperature for 1 hour, followed by the addition of 400 μg/ml of o-phenylenediamine dihydrochloride in peroxide substrate solution. Reactivity was measured at 490 nm. Background absorbance without the primary antibody was subtracted from each sample's absorbance.
as §1

Sequence	ability to competitively inhibit the binding of purified specific IgG to the GST-RBP1L1 fusion protein [1]	epitope recognized by the purified specific human IgG (purified specific IgG)
IKPSLGSKK (listed as Homo sapiens)	completely inhibited	minimal epitope recognized
IKPSLGSKKN (listed as Homo sapiens)	completely inhibited	
